Test results from patent US11035852B2, “Identifying drug candidates for treating polycystic kidney disease using organoids generated from primary cells” (UMC Utrecht Holding B.V., priority 2011, dated 2021).
“Also recorded” adds a separate entry of the source. Where two headings read alike, the source gives them in different places.

Tests used:
CFTR [1] = details: CFTR corrector, cited from earlier work; for EC50: read-out: Potency: EC50
CFTR [2] = assay: Organoid swelling on compound addition (organoid origin not stated; FIG. 7, FIG. 32); type: cell-based
CFTR [3] = details: cited from earlier work
CFTR [4] = biological target: T1, CFTR (Homo sapiens, UniProt P13569); type: cell-based; details: for Effect of CFTR inhibitors on forskolin-stimulated swelling: Example 2, 3 hours pre-incubation, 50 μM
Target sequence in this assay (P13569 whole entry, looked up): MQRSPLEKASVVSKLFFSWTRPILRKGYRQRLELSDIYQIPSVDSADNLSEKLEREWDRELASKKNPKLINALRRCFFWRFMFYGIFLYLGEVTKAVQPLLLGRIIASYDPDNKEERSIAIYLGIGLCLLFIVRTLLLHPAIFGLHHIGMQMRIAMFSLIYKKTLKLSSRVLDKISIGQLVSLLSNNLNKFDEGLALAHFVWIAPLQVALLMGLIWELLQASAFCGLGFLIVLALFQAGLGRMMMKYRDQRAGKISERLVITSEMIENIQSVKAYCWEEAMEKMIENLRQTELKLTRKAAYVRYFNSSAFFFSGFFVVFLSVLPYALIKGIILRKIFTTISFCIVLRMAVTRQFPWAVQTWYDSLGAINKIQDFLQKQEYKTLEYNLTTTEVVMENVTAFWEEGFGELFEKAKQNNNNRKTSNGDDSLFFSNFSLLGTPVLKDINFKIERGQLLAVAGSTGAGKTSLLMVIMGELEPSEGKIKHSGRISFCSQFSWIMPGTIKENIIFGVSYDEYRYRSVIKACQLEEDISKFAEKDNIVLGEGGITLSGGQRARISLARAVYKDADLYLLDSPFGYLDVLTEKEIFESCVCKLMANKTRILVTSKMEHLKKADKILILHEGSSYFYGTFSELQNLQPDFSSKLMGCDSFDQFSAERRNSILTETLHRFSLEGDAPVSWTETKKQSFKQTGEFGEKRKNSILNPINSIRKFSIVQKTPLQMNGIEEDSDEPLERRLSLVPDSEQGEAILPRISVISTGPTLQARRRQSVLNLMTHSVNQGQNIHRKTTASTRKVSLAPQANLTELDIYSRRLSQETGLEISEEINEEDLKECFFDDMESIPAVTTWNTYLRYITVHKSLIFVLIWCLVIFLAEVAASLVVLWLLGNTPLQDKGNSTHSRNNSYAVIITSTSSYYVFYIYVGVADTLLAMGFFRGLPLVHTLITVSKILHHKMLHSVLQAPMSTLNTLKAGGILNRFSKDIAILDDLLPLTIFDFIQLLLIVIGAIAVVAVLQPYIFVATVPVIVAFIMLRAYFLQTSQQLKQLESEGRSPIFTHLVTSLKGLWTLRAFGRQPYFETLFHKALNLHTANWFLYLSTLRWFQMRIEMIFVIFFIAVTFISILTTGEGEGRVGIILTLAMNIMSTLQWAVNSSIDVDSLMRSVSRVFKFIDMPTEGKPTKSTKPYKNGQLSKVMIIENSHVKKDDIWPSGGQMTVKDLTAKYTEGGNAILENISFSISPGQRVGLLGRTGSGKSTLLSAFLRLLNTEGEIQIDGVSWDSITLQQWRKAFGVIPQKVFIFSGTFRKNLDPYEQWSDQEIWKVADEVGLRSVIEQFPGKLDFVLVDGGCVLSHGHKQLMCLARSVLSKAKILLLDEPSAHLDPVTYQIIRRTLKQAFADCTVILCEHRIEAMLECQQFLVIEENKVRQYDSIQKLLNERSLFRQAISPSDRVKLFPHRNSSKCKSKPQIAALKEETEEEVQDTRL

CFTR [5] = biological target: CFTR (Mus musculus, UniProt P26361); assay: Forskolin-induced swelling (FIS) of murine wild-type small intestinal organoids; details: live cell microscopy
Chain of CFTR (Mus musculus, UniProt P26361) (P26361 whole entry): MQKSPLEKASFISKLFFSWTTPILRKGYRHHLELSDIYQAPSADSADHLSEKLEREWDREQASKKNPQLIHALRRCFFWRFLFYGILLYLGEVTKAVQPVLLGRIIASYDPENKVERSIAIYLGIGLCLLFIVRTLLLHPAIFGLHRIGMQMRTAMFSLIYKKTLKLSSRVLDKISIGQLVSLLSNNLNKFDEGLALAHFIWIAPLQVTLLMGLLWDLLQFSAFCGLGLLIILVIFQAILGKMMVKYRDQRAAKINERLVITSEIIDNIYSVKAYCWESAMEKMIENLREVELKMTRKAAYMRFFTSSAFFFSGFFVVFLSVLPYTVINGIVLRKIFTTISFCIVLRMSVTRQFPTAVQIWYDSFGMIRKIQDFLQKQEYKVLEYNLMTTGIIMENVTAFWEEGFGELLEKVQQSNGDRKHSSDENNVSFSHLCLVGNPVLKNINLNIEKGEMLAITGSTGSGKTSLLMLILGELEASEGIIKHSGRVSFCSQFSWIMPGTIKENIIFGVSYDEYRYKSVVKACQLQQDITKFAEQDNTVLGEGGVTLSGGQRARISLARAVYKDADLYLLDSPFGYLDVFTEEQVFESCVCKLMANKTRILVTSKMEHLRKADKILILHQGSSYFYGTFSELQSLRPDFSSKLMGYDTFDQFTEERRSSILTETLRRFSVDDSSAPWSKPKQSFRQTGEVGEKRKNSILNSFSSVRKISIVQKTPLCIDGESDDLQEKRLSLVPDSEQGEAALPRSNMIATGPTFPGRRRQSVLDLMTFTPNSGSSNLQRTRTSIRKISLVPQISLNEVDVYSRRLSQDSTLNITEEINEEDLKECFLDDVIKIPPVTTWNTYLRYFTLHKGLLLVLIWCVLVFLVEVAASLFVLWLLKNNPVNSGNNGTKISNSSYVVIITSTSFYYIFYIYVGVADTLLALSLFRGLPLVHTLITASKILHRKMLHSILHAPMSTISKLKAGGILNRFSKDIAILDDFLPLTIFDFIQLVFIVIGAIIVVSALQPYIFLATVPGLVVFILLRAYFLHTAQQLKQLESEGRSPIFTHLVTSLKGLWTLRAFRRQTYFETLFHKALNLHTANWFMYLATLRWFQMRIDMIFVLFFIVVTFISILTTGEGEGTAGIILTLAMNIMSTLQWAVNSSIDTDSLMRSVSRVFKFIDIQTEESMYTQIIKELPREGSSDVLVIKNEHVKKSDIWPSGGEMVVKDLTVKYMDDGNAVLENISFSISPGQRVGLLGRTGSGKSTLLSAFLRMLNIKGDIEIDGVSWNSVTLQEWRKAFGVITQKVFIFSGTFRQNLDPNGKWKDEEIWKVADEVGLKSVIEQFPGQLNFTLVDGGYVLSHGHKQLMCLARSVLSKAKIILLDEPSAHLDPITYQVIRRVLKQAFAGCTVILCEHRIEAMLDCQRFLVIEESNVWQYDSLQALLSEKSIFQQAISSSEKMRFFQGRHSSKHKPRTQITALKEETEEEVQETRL

[6] = cited from earlier work
CFTR [7] = biological target: T1, CFTR; details: cited from earlier work; for Ki: CFTR blocker, read-out: Potency: Ki
Target sequence in this assay (P13569 whole entry): as the sequence (P13569 whole entry, looked up) above

[8] = human healthy control organoids

Compound: O=C(N/N=C\c1ccc(O)c(O)c1)c1cc2ccccc2cc1O [C11, (Z)-N′-(3,4-dihydroxyben-zylidene)-3-hydroxy-2-naphtho-hydrazide]
- EC50 (CFTR [1]): 10000 to 20000 nM

Compound: COc1ccc(Cl)cc1Nc1nc(-c2sc(NC(=O)c3ccccc3)nc2C)cs1 [C4, N-[2-(5-Chloro-2-methoxy-phenylamino)-4′-methyl-[4,5′]bithiazolyl-2′-yl]-benzamide]
- EC50 (CFTR [1]): 2000 nM

Compound: NCCc1ccc(O)c(O)c1 [dopamine]
- Organoid swelling on compound addition (CFTR [2]): forskolin-like swelling

Compound: O=C1c2c(O)cc(O)cc2OCC1c1ccc(O)cc1 (centres unmarked) [P6, 5,7,Dihydroxy-3-(4-hydroxy-phenyl)-chroman-4-one]
- Potency: Ks (CFTR [3]; CFTR potentiator): Reference #** 8 Name: Genistein (discontinued— available from Sigma #G6649) Potency: Ks = 10 to 30 microM Solvent: DMSO
- Organoid swelling on compound addition (CFTR [2]): rapid organoid swelling

Compound: O=S(=O)(c1ccccc1)N1CCN(c2ccnc3cc(Cl)ccc23)CC1 [C10, 7-chloro-4-(4-(phenylsulfonyl)piperazin-1-yl)quinoline]
- EC50 (CFTR [1]): > 100000 nM

Compound: COc1ccccc1Nc1ncc(-c2sc(NC(=O)c3ccccc3)nc2C)s1 [C14, N-(2′-(2-methoxyphenylamino)-4-methyl-5,5′-bithiazol-2-yl)benzamide]
- EC50 (CFTR [1]): 7000 nM

Compound: Cc1ccc(-c2csc(Nc3ccc(F)cc3)n2)cc1 [C12, N-(4-fluorophenyl)-4-p-tolylthiazol-2-amine]
- EC50 (CFTR [1]): 5000 nM

Compound: C#CCCc1nn(-c2ccccc2)c(OC)c1C=O [P9, 3-But-3-ynyl-5-methoxy-1-phenyl-1H-pyrazole-4-carbaldehyde]
- Potency: Ks (CFTR [3]; CFTR potentiator): Reference #** 10 Potency: Ks = 10 microM Solvent: DMSO Hints For Use: M.W.: 254.3

Compound: CC(C)c1ccc(NC(=O)C(c2ccccc2)N(C)C(=O)Cc2c[nH]c3ccccc23)cc1 (centres unmarked) [P2, 2-[(2-1H-lndol-3-yl-acetyl)-methyl-amino]-N-(4-isopropyl-phenyl)-2-phenyl-acetamide]
- Potency: Ks (CFTR [3]; CFTR potentiator): Reference #** 4 Name: PG-01 Potency:Ks = 300 nM Solvent: DMSO Hints For Use: M.W.: 439.5

Compound: COc1ccc2nc(Nc3nc(=O)c(C)c(C)[nH]3)nc(C)c2c1 [C16, 2-(6-methoxy-4-methylquina-zolin-2-ylamino)-5,6-dimethylpyrimi-din-4(1H)-one]
- EC50 (CFTR [1]): 15000 nM

Compound: COc1ccc(S(=O)(=O)N2CCN(C(C)c3nc(OC4CCCCC4)c4ccccc4n3)CC2)cc1 (centres unmarked) [C3, Cyclohexyloxy-2-{1-[4-(4-methoxy-benzensulfonyl)-piperazin-1-yl]-ethyl}-quinazoline]
- EC50 (CFTR [1]): 2000 nM

Compound: O=c1cc(-c2ccncc2)oc2c1ccc1ccccc12 [P8, 4-(4-Oxo-4H-benzo[h]chromen-2-yl)-pyridinium; bisulfate]
- Potency: Ks (CFTR [3]; CFTR potentiator): Reference #** 9 and 10 Potency: Ks = 2 microM Solvent: DMSO Hints For Use: M.W.: 371.4

Compound: O=C1Cc2cc(C(F)(F)F)ccc2N1c1cc(Cl)ccc1O [P7, 1-(5-Chloro-2-hydroxy-phenyl)-5-trifluoromethyl-1,3-dihydro-indol-2-one]
- EC50 (CFTR [3]; CFTR potentiator, read-out: Potency: EC50): 3000 nM
- Activity in excised patches (CFTR [3]; excised patches): Does not work in excised patches

Compound: NC(=O)c1c(NC(=O)c2ccccc2Cl)sc2c1CCCC2 [P5, 2-(2-Chloro-benzoylamino)-4,5,6,7-tetrahydro-benzo[b] thiophene-3-carboxylic acid amide]
- Potency: Ks (CFTR [3]; CFTR potentiator): Reference #** 6 Name: dF508act-02 Potency: Ks = 70 nM Solvent: DMSO Hints For Use: M.W.: 334.8

Compound: Cc1cc(Nc2ccc(Br)cc2)nc2ccccc12 [C6, N-(4-bromophenyl)-4-methylquinolin-2-amine]
- EC50 (CFTR [1]): 8000 nM

Compound: C=C[C@@]1(C)CC(=O)[C@]2(O)[C@@]3(C)[C@@H](O)CCC(C)(C)[C@@H]3[C@H](O)[C@H](OC(C)=O)[C@@]2(C)O1 [forskolin, (3R,4aR,5S,6S,6aS,10S,10aR,10bS)-6,10,10b-trihydroxy-3,4a,7,7,10a-pentamethyl-1-oxo-3-vinyldodecahydro-1H-benzo[f]chromen-5-yl acetate]
- Organoid swelling induced by stimulus (CFTR [4]; [8]): rapid forskolin-stimulated swelling
- Increase in organoid size (CFTR [4]; human organoids, in the space of 120 minutes (FIG. 8)): more than double in size
- Organoid swelling on forskolin addition (CFTR [5]): rapid expansion of the lumen and total organoid surface area; also recorded: dose-dependent relation between forskolin and increase of surface area over time

Compound: ClCc1cc(-c2ccccc2OCc2ccccc2)no1 [P10, 3-(2-Benzyloxy-phenyl)-5-chloromethyl-isoxazole]
- Potency: Ks (CFTR [3]; CFTR potentiator): Reference #** 10 Potency: Ks >50 microM Solvent: DMSO Hints For Use: M.W.: 299.8

Compound: Cc1ccc(O)c(-c2cc(-c3ccccc3)[nH]n2)c1 [P1, 4-Methyl-2-(5-phenyl-1H-pyrazol-3-yl)-phenol]
- Potency: Ks (CFTR [3]; CFTR potentiator): Reference #**12 & 15 Name: VRT-532 Potency: Ks 3 to 5 microM Solvent: DMSO Hints For Use: M.W.: 250

Compound: O=C(CNc1ccc2ccccc2c1)N/N=C/c1cc(Br)c(O)c(Br)c1O [B2, (Naphthalen-2-ylamino)-acetic acid (3,5-dibromo-2,4,- dihydroxy-benzylidene)-hydrazide]
- Effect of CFTR inhibitors on forskolin-stimulated swelling (CFTR [4]; [8]): reduced

Compound: CC(C)(C)NCC(O)c1ccc(O)c(CO)c1 (centres unmarked) [salbutamol]
- Organoid swelling on compound addition (CFTR [2]): forskolin-like swelling

Compound: CCN(c1ccccc1)S(=O)(=O)c1ccc2[nH]cc(C(=O)NCc3ccccc3OC)c(=O)c2c1 [P3, 6-(Ethyl-phenyl-sulfonyl)-4-oxo-1,4-dihydro-quinoline-3-carboxylic acid 2-methoxy-benzylamide]
- Potency: Ks (CFTR [3]; CFTR potentiator): Reference #** 4 Name: SF-03 Potency: Ks = 30 nM Solvent: DMSO Hints For Use: M.W.: 491.6

Compound: COc1ccc2nc(Nc3nc(O)cc(CSc4nc5ccccc5[nH]4)n3)nc(C)c2c1 [C1, 6-(1H-Benzoimidazol-2-ylsulfanyl-methyl)-2-(6-methoxy-4-methyl-quinazolin-2-ylamino)-pyrimidin-4-ol]
- Potency: Ks (CFTR [1]): Reference #** 11 Potency: Ks = 3 microM Solvent: DMSO Hints For Use: M.W.: 445.5

Compound: COc1ccc(Cl)cc1Nc1nc(-c2sc(NC(=O)C(C)(C)C)nc2C)cs1 [C17, N-(2-(5-chloro-2-methoxyphenylamino)-4′-methyl-4,5′-bithiazol-2′-yl)pivalamide]
- EC50 (CFTR [1]): 1000 to 2000 nM

Compound: Cc1cc(C)c2c(C)cc(Nc3ccccc3)nc2c1 [C5, 4,5,7-trimethyl N-phenylquinolin-2-amine]
- EC50 (CFTR [1]): 13000 nM

Compound: O=C(O)c1ccc(/C=C2\SC(=O)N(c3cccc(C(F)(F)F)c3)C2=O)cc1 [B8, 4-[[3-[3-(trifluoromethyl)phenyl]-2,4-dioxo-5-thiazolidinyli-dene]methyl]benzoic acid]
- Water solubility relative to Inh.-172 [6]: more water soluble than Inh.-172
- Ki (CFTR [7]): ~1000 nM

Compound: O=c1[nH]c2cc(C(F)(F)F)ccc2n1-c1cccc(Cl)c1 [P4, 1-(3-chlorophenyl)-5-trifluoromethyl-3-hydrobenzi-midazol-2-one]
- Potency: Ks (CFTR [3]; CFTR potentiator): Reference #** 5 Name: UCCF-853 Potency: Ks = 3 microM Solvent: DMSO Hints For Use: M.W.: 312.7

Compound: Cc1ccc(S(=O)(=O)NC(=O)Nc2ccc([N+](=O)[O-])cc2)cc1 [B3, Diarylsulfonyl- urea]
- Ki (CFTR [7]): > 100000 nM

Compound: Cc1ccc(C2Nc3ccccc3-n3c(-c4ccccc4)c4c(=O)n(C)c(=O)n(C)c4c32)o1 (centres unmarked) [B6, 7,9-dimethyl-11-phenyl-6-(5-methylfuran-2-yl)-5,6-dihydro-pyrimido-[4′,5′-3,4]pyrrolo[1,2-a]quinoxaline-8,10-(7H,9H)-dione]
- Ki (CFTR [7]): 90 nM

Compound: C=Cc1ccc(-c2csc(Nc3ccccc3)n2)cc1 [C15, N-phenyl-4-(4-vinylphenyl) thiazol-2-amine]
- EC50 (CFTR [1]): 16000 nM

Compound: CC(=O)c1cccc(Nc2nc(-c3sc(NC(=O)c4ccccc4)nc3C)cs2)c1 [C13, N-(2-(3-acetylphenyl-amino)-4′-methyl-4,5′-bithiazol-2′-yl)benzamide]
- EC50 (CFTR [1]): 2000 nM

Compound: CNC[C@H](O)c1ccc(O)c(O)c1 [epinephrine]
- Organoid swelling on compound addition (CFTR [2]): forskolin-like swelling

Compound: O=C1/C(=C/c2ccc(-c3nn[nH]n3)cc2)SC(=S)N1c1cccc(C(F)(F)F)c1 [B7, 5-[[4-(2h-tetrazol-5-yl)phenyl]methylene]-2-thioxo-3-[3-(trifluoromethyl)phenyl]-4-thiazolidinone]
- Water solubility relative to Inh.-172 [6]: more water soluble than Inh.-172
- Ki (CFTR [7]): ~1000 nM

Compound: O=S(=O)(c1ccc(Cl)cc1)N1CCN(c2ccnc3cc(Cl)ccc23)CC1 [C9, 7-chloro-4-(4-(4-chlorophenylsul-fonyl)piperazin-1-yl)quinoline]
- EC50 (CFTR [1]): < 1000 nM

Compound: O=C(O)c1ccc(/C=C2/SC(=S)N(c3cccc(C(F)(F)F)c3)C2=O)cc1 [B1, 4-[4-Oxo-2-thioxo-3-(3-trifluoromethyl-phenyl)-thiazolidin-5-ylidenemethyl]-benzoic acid]
- Effect of CFTR inhibitors on forskolin-stimulated swelling (CFTR [4]; [8]): reduced
- Ki (CFTR [7]): 300 nM
- Onset of inhibition (CFTR [7]; some cell types (eg. T84 cells), requiring prolonged incubation): Slow onset of inhibition

Compound: CC(NCCc1ccc(O)cc1)C(O)c1ccc(O)cc1 (centres unmarked) [ritodrine]
- Organoid swelling on compound addition (CFTR [2]): forskolin-like swelling

Compound: cholera toxin
- Increase in organoid size (CFTR [4]): more than double in size
- Organoid swelling induced by stimulus (CFTR [4]): induce swelling
- Time course of swelling response (CFTR [4]): delayed compared to forskolin

Compound: O=C(Nc1ncc(C(c2ccccc2Cl)N2CCC(O)C2)s1)C1(c2ccc3c(c2)OCO3)CC1 (centres unmarked) [C18, 1-(benzo[d][1,3]di-oxol-5-yl)-N-(5-((2-chlorophenyl)(3-hydroxy-pyrrolidin-1-yl)methyl)thiazol-2-yl)cyclopropane carboxamide]
- Potency: Ks (CFTR [1]): Reference # 24 Name: CF-106951 Potency Ks ~0.6 microM Solvent: DMSO Hints for use: Use at 3 to 6 microM for maximum effect. M.W. 497.99
